How the values were obtained:
[1] = tested on: T1, Nonstructural protein 5A (Hepatitis C virus), Q5L478 [Y93H]; experiment: Inhibition of NS5A Y93H mutant in HCV genotype 1a assessed as reduction in replicon RNA level after 3 days by cell based RT-PCR method; settings: Hepatitis C virus subtype 1a
T1 sequence (whole entry): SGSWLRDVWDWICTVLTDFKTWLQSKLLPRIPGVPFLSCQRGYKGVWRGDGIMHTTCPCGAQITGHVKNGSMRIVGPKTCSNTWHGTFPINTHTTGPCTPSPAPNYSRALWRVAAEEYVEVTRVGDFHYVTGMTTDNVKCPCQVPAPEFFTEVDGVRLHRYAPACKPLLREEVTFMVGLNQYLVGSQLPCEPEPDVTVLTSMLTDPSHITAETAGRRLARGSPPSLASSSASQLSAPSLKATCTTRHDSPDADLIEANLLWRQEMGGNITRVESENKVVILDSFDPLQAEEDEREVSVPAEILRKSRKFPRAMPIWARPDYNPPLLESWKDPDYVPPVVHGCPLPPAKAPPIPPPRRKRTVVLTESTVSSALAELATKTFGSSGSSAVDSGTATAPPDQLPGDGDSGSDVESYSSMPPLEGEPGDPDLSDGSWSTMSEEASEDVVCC

[2] = tested on: Nonstructural protein 5A (Hepatitis C virus), Q5L478 [UNDEFINED MUTATION]; experiment: Inhibition of NS5A L31V mutant in HCV genotype 1a assessed as reduction in replicon RNA level after 3 days by cell based RT-PCR method; settings: Hepatitis C virus subtype 1a
[3] = tested on: Hepatitis C virus subtype 3a; experiment: Inhibition of NS5A in HCV genotype 3a assessed as reduction in replicon RNA level after 3 days by cell based RT-PCR method
[4] = tested on: Hepatitis C virus subtype 2b; experiment: Inhibition of NS5A in HCV genotype 2b assessed as reduction in replicon RNA level after 3 days by cell based RT-PCR method
[5] = tested on: Hepatitis C virus subtype 1a; experiment: Inhibition of NS5A in HCV genotype 1a assessed as reduction in replicon RNA level after 3 days by cell based RT-PCR method
[6] = tested on: Hepatitis C virus subtype 1a; experiment: Selectivity ratio of EC90 for NS5A L31V mutant in HCV genotype 1a to EC90 for NS5A in HCV genotype 1a
[7] = tested on: Hepatitis C virus subtype 1a; experiment: Selectivity ratio of EC90 for NS5A Y93H mutant in HCV genotype 1a to EC90 for NS5A in HCV genotype 1a
[8] = Selectivity ratio of EC90 for NS5A in HCV genotype 2b to EC90 for NS5A in HCV genotype 1a

Structure (SMILES) | EC90 [1] [nM] | EC90 [2] [nM] | EC90 [3] [nM] | EC90 [4] [nM] | EC90 [5] [nM] | Selectivity ratio [6] | Selectivity ratio [7] | Selectivity ratio [8]
COC(=O)N[C@H](C(=O)N1CCC[C@H]1c1ncc(-c2cc(F)c3c(c2)OC(c2ccccc2)n2c-3cc3cc(-c4cnc([C@H]5[C@@H]6[C@H](CN5C(=O)[C@@H](NC(=O)OC)C(C)C)C6(C)C)[nH]4)ccc32)[nH]1)C(C)C (mixture of isomers) | > 100 | 21 | > 10 | 337 | 0.02 | – | – | –
COC(=O)N[C@H](C(=O)N1C[C@H](F)C[C@H]1c1ncc(-c2cc(F)c3c(c2)OC(c2cccc(OC)c2)n2c-3cc3cc(-c4cnc([C@@H]5C[C@@H](F)CN5C(=O)[C@@H](NC(=O)OC)C(C)C)[nH]4)ccc32)[nH]1)C(C)C (some centres not stated) | 0.065 | 1.59 | – | 39 | 0.006 | – | – | –
COC(=O)N[C@H](C(=O)N1C[C@@H](OC)C[C@H]1c1ncc(-c2cc(F)c3c(c2)OC(c2cccc(OC)c2)n2c-3cc3cc(-c4cnc([C@@H]5C[C@H](OC)CN5C(=O)[C@@H](NC(=O)OC)C(C)C)[nH]4)ccc32)[nH]1)C(C)C (some centres not stated) | 8.87 | 0.04 | 0.71 | 5.74 | 0.017 | – | – | –
COC(=O)N[C@H](C(=O)N1CCC[C@H]1c1ncc(-c2cc(F)c3c(c2)OC(c2cccc(OC)c2)n2c-3cc3cc(-c4cnc([C@@H]5C[C@@H](F)CN5C(=O)[C@@H](NC(=O)OC)C(C)C)[nH]4)ccc32)[nH]1)C(C)C (some centres not stated) | 1.81 | 0.29 | – | 33.6 | 0.01 | – | – | –
COC(=O)N[C@H](C(=O)N1C(C)CC[C@H]1c1ncc(-c2ccc3c(c2)OC(c2ccccc2)n2c-3cc3cc(-c4cnc([C@@H]5CCC(C)N5C(=O)[C@@H](NC(=O)OC)C(C)C)[nH]4)ccc32)[nH]1)C(C)C (single isomer, unassigned; diastereomer A) | 64 | 1.72 | 6.14 | 75 | – | – | – | –
COC(=O)N[C@H](C(=O)N1CCC[C@H]1c1ncc(-c2ccc3c(c2)cc2n3C(c3ccccc3)Oc3cc(-c4cnc([C@@H]5C[C@@H](F)CN5C(=O)[C@@H](NC(=O)OC)C(C)C)[nH]4)cc(F)c3-2)[nH]1)C(C)C (some centres not stated) | 1.4 | 2.17 | – | 63.6 | 0.006 | 362 | 233 | 10600
COC(=O)N[C@H](C(=O)N1[C@@H]2CCCC[C@@H]2C[C@H]1c1ncc(-c2cc(F)c3c(c2)OC(c2cccc(OC)c2)n2c-3cc3cc(-c4cnc([C@@H]5C[C@H]6CCCC[C@H]6N5C(=O)[C@@H](NC(=O)OC)C(C)C)[nH]4)ccc32)[nH]1)C(C)C (some centres not stated) | 37.6 | 0.51 | – | 21 | 0.18 | – | – | –
COC(=O)N[C@H](C(=O)N1CCC[C@H]1c1ncc(-c2cc(F)c3c(c2)OC(c2cccc(OC)c2)n2c-3cc3cc(-c4cnc([C@@H]5[C@H]6CC[C@H](C6)N5C(=O)[C@@H](NC(=O)OC)C(C)C)[nH]4)ccc32)[nH]1)C(C)C (some centres not stated) | 26.1 | 0.9 | 0.92 | 51.8 | 0.002 | – | – | –
COC(=O)N[C@H](C(=O)N1CCC[C@H]1c1ncc(-c2ccc3c(c2)cc2n3C(c3cccc(OC)c3)Oc3cc(-c4cnc([C@@H]5C[C@@H](F)CN5C(=O)[C@@H](NC(=O)OC)C(C)C)[nH]4)cc(F)c3-2)[nH]1)C(C)C (some centres not stated) | 0.55 | 0.34 | 0.13 | 18.8 | < 0.002 | – | – | –
COC(=O)N[C@H](C(=O)N1[C@@H]2CC(F)(F)[C@@H]2C[C@H]1c1ncc(-c2cc(F)c3c(c2)OC(c2cccc(OC)c2)n2c-3cc3cc(-c4cnc([C@@H]5C[C@@H]6[C@@H](CC6(F)F)N5C(=O)[C@@H](NC(=O)OC)C(C)C)[nH]4)ccc32)[nH]1)C(C)C (some centres not stated) | 52.6 | 0.078 | 0.29 | 58 | 0.017 | – | – | –
COC(=O)N[C@H](C(=O)N1[C@@H]2C[C@@H]2C[C@H]1c1ncc(-c2cc(F)c3c(c2)OC(c2cccc(OC)c2)n2c-3cc3cc(-c4cnc([C@@H]5C[C@H]6C[C@H]6N5C(=O)[C@@H](NC(=O)OC)C(C)C)[nH]4)ccc32)[nH]1)C(C)C (some centres not stated) | 0.51 | 1.72 | 0.17 | 22.5 | 0.005 | – | – | –
COC(=O)N[C@H](C(=O)N1CCC[C@H]1c1ncc(-c2cc(F)c3c(c2)OC(c2ccccc2)n2c-3cc3cc(-c4cnc([C@@H]5C[C@H]6C[C@H]6N5C(=O)[C@@H](NC(=O)OC)C(C)C)[nH]4)ccc32)[nH]1)C(C)C (some centres not stated) | 3.17 | 0.42 | – | 16.3 | 0.016 | 26 | 200 | 1000
COC(=O)N[C@H](C(=O)N1CC2(CC2)C[C@H]1c1ncc(-c2cc(F)c3c(c2)OC(c2cccc(OC)c2)n2c-3cc3cc(-c4cnc([C@@H]5CC6(CC6)CN5C(=O)[C@@H](NC(=O)OC)C(C)C)[nH]4)ccc32)[nH]1)C(C)C (some centres not stated) | 23.7 | 0.05 | 0.16 | 38.8 | 0.011 | – | – | –
COC(=O)N[C@H](C(=O)N1C(C)CC[C@H]1c1ncc(-c2ccc3c(c2)OC(c2ccccc2)n2c-3cc3cc(-c4cnc([C@@H]5CCC(C)N5C(=O)[C@@H](NC(=O)OC)C(C)C)[nH]4)ccc32)[nH]1)C(C)C (single isomer, unassigned; diastereomer B) | 158 | 5.74 | 51.5 | 129 | – | – | – | –
COC(=O)N[C@H](C(=O)N1C[C@H](OC)C[C@H]1c1ncc(-c2cc(F)c3c(c2)OC(c2cccc(OC)c2)n2c-3cc3cc(-c4cnc([C@@H]5C[C@@H](OC)CN5C(=O)[C@@H](NC(=O)OC)C(C)C)[nH]4)ccc32)[nH]1)C(C)C (some centres not stated) | 0.79 | 0.19 | 5.52 | 90.7 | 0.015 | – | – | –
COC(=O)N[C@H](C(=O)N1C[C@H](F)C[C@H]1c1ncc(-c2cc(F)c3c(c2)OC(c2cccc(OC)c2)n2c-3cc3cc(-c4cnc([C@@H]5C[C@H]6C[C@H]6N5C(=O)[C@@H](NC(=O)OC)C(C)C)[nH]4)ccc32)[nH]1)C(C)C (some centres not stated) | 5.15 | 0.92 | – | 52.2 | 0.032 | – | – | –
COC(=O)N[C@H](C(=O)N1CC2(C[C@H]1c1ncc(-c3cc(F)c4c(c3)OC(c3cccc(OC)c3)n3c-4cc4cc(-c5cnc([C@@H]6CC7(CN6C(=O)[C@@H](NC(=O)OC)C(C)C)OCCCO7)[nH]5)ccc43)[nH]1)OCCCO2)C(C)C (mixture of isomers) | 0.44 | 0.2 | 15 | 114 | 0.018 | – | – | –
COC(=O)N[C@H](C(=O)N1CC[C@H](OC)[C@H]1c1ncc(-c2cc(F)c3c(c2)OC(c2cccc(OC)c2)n2c-3cc3cc(-c4cnc([C@@H]5[C@@H](OC)CCN5C(=O)[C@@H](NC(=O)OC)C(C)C)[nH]4)ccc32)[nH]1)C(C)C (some centres not stated) | 3.86 | 24.5 | 30 | 322 | 2.67 | – | – | –
COC(=O)N[C@H](C(=O)N1CCC[C@H]1c1ncc(-c2ccc3c(c2)cc2n3C(c3cccc(OC)c3)Oc3cc(-c4cnc([C@@H]5C[C@H]6C[C@H]6N5C(=O)[C@@H](NC(=O)OC)C(C)C)[nH]4)cc(F)c3-2)[nH]1)C(C)C (some centres not stated) | 10.9 | 0.36 | – | 49.3 | 0.026 | – | – | –
COC(=O)N[C@H](C(=O)N1CCC[C@H]1c1ncc(-c2cc(F)c3c(c2)OC(c2ccc4c(c2)OCCC4)n2c-3cc3cc(-c4cnc([C@@H]5CCCN5C(=O)[C@@H](NC(=O)OC)C(C)C)[nH]4)ccc32)[nH]1)C(C)C (some centres not stated) | 0.48 | 0.0025 | – | 0.31 | 0.003 | 1 | 160 | 103
COC(=O)N[C@H](C(=O)N1C[C@H](OC(F)F)C[C@H]1c1ncc(-c2cc(F)c3c(c2)OC(c2cccc(OC)c2)n2c-3cc3cc(-c4cnc([C@@H]5C[C@@H](OC(F)F)CN5C(=O)[C@@H](NC(=O)OC)C(C)C)[nH]4)ccc32)[nH]1)C(C)C (some centres not stated) | 5.27 | – | 12.9 | 55.6 | 0.021 | – | – | –
COC(=O)N[C@H](C(=O)N1C[C@H](F)C[C@H]1c1ncc(-c2cc(F)c3c(c2)OC(c2cccc(OC)c2)n2c-3cc3cc(-c4cnc([C@@H]5C[Si](C)(C)CN5C(=O)[C@@H](NC(=O)OC)C(C)C)[nH]4)ccc32)[nH]1)C(C)C (some centres not stated) | 91.4 | 13.6 | – | 391 | 0.3 | – | – | –
COC(=O)N[C@H](C(=O)N1CCC[C@H]1c1ncc(-c2cc(F)c3c(c2)OC(c2cccc(OC)c2)n2c-3cc3cc(-c4cnc([C@@H]5C[C@H]6C[C@H]6N5C(=O)[C@@H](NC(=O)OC)C(C)C)[nH]4)ccc32)[nH]1)C(C)C (some centres not stated) | 1.64 | 0.084 | 0.15 | 19.4 | 0.007 | – | – | –
